The source made the active and inactive calls.
Columns and labels:
[1] = target: T1, Sentrin-specific protease 6 (Homo sapiens, UniProt Q9GZR1); type: functional;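 further: Luminescence-based dose-response confirmatory assay of SENP6 inhibition, following up an ultra-high-throughput screen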
T1 sequence (Q9GZR1 whole entry): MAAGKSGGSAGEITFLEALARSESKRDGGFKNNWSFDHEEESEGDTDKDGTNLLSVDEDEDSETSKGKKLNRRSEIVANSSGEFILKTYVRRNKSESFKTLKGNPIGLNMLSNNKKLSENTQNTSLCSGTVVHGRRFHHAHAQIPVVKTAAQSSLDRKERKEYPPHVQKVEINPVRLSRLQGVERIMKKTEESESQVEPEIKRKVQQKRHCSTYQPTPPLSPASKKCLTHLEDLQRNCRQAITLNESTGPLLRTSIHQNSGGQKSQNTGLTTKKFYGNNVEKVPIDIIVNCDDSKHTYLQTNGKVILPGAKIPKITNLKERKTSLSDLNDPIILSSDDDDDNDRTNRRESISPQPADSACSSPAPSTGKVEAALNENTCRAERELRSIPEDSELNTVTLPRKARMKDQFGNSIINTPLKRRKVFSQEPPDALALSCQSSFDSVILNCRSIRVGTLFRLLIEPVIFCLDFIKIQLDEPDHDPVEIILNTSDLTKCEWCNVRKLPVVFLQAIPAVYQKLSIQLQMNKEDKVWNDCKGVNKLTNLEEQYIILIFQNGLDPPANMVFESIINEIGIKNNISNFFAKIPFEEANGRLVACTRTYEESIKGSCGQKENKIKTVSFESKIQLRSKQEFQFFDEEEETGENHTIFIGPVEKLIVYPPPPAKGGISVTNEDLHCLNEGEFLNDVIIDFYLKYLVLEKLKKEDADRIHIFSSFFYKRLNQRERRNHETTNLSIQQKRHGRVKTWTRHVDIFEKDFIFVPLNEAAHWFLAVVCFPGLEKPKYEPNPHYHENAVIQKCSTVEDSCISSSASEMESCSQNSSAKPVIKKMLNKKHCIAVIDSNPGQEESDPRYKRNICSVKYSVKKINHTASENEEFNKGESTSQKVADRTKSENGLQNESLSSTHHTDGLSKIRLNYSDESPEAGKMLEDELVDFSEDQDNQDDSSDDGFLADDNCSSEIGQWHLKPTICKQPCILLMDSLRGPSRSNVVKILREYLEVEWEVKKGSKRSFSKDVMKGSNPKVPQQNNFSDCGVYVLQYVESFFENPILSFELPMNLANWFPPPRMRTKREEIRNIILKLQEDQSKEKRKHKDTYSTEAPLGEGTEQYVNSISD

[2] = target: T2, Sentrin-specific protease 7 (Homo sapiens, UniProt Q9BQF6); type: functional;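 further: Luminescence-based dose-response confirmation of ultra-high-throughput screening hits, measuring inhibition of SENP7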
T2 sequence (Q9BQF6 whole entry): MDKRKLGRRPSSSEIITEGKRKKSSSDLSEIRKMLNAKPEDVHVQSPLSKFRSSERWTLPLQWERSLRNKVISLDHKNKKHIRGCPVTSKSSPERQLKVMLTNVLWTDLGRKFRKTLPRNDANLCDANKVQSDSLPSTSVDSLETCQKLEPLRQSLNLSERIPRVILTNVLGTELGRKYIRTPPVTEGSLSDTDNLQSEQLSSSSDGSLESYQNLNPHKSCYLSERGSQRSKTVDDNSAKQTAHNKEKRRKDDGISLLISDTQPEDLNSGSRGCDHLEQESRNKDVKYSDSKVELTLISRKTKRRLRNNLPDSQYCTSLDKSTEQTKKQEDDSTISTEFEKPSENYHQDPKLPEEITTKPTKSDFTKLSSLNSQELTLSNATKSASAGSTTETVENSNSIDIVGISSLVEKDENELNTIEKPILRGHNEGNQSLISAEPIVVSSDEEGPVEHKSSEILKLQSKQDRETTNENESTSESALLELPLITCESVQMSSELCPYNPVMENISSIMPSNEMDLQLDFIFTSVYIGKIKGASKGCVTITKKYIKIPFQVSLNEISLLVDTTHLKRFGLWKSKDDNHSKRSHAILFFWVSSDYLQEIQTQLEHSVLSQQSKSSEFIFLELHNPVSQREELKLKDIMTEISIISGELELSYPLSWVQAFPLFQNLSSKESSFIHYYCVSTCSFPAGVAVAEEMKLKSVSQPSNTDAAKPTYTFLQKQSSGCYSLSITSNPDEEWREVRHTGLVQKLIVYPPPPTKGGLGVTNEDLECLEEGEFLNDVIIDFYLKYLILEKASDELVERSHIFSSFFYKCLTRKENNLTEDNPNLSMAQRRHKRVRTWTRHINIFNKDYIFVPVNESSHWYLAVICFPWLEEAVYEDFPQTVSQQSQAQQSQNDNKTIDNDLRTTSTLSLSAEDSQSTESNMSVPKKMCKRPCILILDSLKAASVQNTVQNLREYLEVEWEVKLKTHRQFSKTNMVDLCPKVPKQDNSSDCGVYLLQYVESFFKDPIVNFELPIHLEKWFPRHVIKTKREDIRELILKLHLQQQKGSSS

[3] = target: T3, Sentrin-specific protease 8 (Homo sapiens, UniProt Q96LD8); type: functional;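 further: luminescence read-out of SENP8 inhibition, dose-response confirmation following an ultra-high-throughput screen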
T3 sequence (Q96LD8 whole entry): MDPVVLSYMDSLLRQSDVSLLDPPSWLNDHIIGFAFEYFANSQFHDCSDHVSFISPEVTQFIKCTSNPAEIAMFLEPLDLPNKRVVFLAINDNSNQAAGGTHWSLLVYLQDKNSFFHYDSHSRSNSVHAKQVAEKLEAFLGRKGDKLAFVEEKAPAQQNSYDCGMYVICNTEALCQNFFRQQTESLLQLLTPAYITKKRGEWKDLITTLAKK

Caspase-3 = target: T4, Caspase-3 (Homo sapiens, UniProt P42574); type: functional;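 further: Dose-response selectivity test against caspase-3 for candidate inhibitors of sentrin-specific proteases (SENPs)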
T4 sequence (P42574 whole entry): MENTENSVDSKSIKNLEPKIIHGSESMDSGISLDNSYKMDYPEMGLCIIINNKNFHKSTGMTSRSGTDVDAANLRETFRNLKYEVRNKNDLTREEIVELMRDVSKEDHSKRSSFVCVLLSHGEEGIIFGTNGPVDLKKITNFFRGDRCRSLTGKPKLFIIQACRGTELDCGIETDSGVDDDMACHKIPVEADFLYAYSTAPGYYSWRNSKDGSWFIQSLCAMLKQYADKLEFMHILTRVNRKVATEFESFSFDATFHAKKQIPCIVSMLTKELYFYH

[4] = IC50 of Artemis nuclease activity blockers – biochemical, fluorescence intensity, dose response (AID 720701); type: functional;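 further: Artemis endonuclease enzyme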
[5] = target: Glutathione-S-transferase (Schistosoma japonicum, UniProt Q26513); test: GST-antibody interaction or FRET quenching – biochemical, TR-FRET, artefact control for Vif-APOBEC3G degradation inhibitor project, dose response (AID 1117362); type: functional
Chain of Glutathione-S-transferase (Q26513 whole entry): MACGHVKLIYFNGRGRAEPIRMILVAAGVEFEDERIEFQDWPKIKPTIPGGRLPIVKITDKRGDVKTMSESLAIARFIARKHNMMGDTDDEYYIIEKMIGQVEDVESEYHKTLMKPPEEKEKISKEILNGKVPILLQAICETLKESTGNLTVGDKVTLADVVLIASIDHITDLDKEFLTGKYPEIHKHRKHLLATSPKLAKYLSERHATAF

[6] = CMV-driven luciferase expression suppression in HEK293 – cell-based, luminescence, dry powder, counter-screen for Pax8 inhibitor project, dose response (AID 743020); type: functional
[7] = viability loss in HEK293 cells – cell-based, plate reader, cherry-picked samples, cytotoxicity control, dose response (AID 743446); type: functional
[8] = inhibitors acting on PAX2 in cells – cell-based, plate reader, dry powder samples, selectivity assay for PAX8 inhibitor project, dose response (AID 743048); type: functional;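 further: HEK293 cells carrying a WT1 promoter luciferase reporter driven by expressed Pax2; potency is for inhibition of Pax2 driven reporter signal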
Paired box protein Pax-8 = Paired box protein Pax-8 (Homo sapiens, UniProt Q06710); test: PAX8 transcriptional activity inhibition in RMG-I – RMG-I cells, luciferase, cherry-pick, dose response (AID 687027); type: functional, cell-based;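 further: luciferase reporter driven by Pax8 target thyroperoxidase promoter measured by SteadyGlo luminescence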
Chain of Paired box protein Pax-8 (Q06710 whole entry): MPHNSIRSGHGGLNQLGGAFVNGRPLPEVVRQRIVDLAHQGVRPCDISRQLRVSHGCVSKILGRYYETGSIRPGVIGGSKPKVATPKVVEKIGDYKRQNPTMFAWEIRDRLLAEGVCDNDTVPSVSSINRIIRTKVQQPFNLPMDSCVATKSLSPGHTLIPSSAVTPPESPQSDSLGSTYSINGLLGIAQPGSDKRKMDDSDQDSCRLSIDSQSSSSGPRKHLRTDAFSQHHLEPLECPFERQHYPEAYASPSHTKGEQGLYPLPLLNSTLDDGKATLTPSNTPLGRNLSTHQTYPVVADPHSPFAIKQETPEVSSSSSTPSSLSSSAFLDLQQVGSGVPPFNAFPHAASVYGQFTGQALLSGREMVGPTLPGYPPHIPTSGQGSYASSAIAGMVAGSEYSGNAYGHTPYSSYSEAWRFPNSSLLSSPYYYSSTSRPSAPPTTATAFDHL

[9] = A549 cell cytotoxicity, dose response, cytotoxicity control, plate reader, cherry-pick, antagonist series (AID 743412); type: functional, cell-based
[10] = OVCAR8 cell viability loss – plate reader, dry powder samples, PAX8 project, dose response (AID 743197); type: functional, cell-based; details: OVCAR-8
[11] = blockers of bursicon-stimulated LGR2 cAMP reporter – cell-based, HEK293, CRE-luciferase reporter, cherry pick, set 2, dose response (AID 743343); type: functional;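 further: transfected cells were stimulated with diluted bursicon conditioned medium after compound addition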
[12] = PAX8-dependent cell viability loss – plate reader, dry powder, dose response (AID 743049); type: functional, cell-based
[13] = PAX5 cellular inhibition readout – cell-based, plate reader, dry powder samples, selectivity assay for PAX8 inhibitor project, dose response (AID 743047); type: functional;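 further: HEK293 cells carrying a Pax5 driven CD19 promoter luciferase reporter; potency of inhibitors that lower reporter luminescence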
[14] = IGROV1 cell killing – plate reader, dry powder samples, PAX8 inhibitor project, dose response (AID 743043); type: functional, cell-based; details: IGROV-1
[15] = OV-90 cell viability loss – plate reader, dry powder, SA8, PAX8 inhibitor project, dose response (AID 743149); type: functional, cell-based
[16] = COV362 cell viability loss – plate reader, dry powder, SA12, cytotoxicity control for PAX8 inhibitor project, dose response (AID 743144); type: functional, cell-based
[17] = OVCAR-3 cell viability loss – plate reader, dry powder samples, PAX8 inhibitor project, dose response (AID 743044); type: functional, cell-based
[18] = COV434 cell viability loss – plate reader, dry powder, SA7, cytotoxicity control for PAX8 inhibitor project, dose response (AID 743145); type: functional, cell-based
[19] = toxicity toward HepG2 liver cells – cell-based, plate reader, cherry-pick, antagonist series, cytotoxicity control, dose response (AID 743416); type: functional
[20] = blockade of melanocortin 4 receptor signaling – cell-based, plate reader, cherry pick, counter-screen for LGR2 antagonist project, dose response (AID 743444); type: functional;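 further: transfected HEK 293 cells stimulated with alpha-MSH peptide; potency of inhibitors of the alpha-MSH evoked signal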
[21] = toxicity toward immortalized ovarian surface epithelium – cell-based, plate reader, dry powder samples, cytotoxicity control for PAX8 inhibitor project, dose response (AID 743045); type: functional
[22] = toxicity to human hepatoma HepG2 cells – cell-based, cherry-picked samples, cytotoxicity control, dose response (AID 1159577); type: functional
[23] = viability loss in A549 lung cancer cells – cell-based, cherry-picks, […], cytotoxicity control, dose response (AID 1053119); type: functional
[24] = inhibition of fibronectin matrix deposition – AH1F cells, Alexa488-fibronectin fluorescence, cherry-pick, set 2, dose response (AID 1117283); type: functional, cell-based
[25] = P. falciparum Dd2 growth inhibitors, dose response, SYBR Green, cherry-picked samples (AID 1159567); type: functional, cell-based
[26] = TB: CFU replicating Measured in Microorganism System Using Imaging - 7108-05_Inhibitor_Dose_DryPowder_Activity_Set2.; type: functional

For `Brc1ccc(-c2cn3nc4c(nc3n2)CCCC4)cc1`, the IC50 [1] was 12.3 µM (active), the IC50 [2] was 21.2 µM (active) and the IC50 [3] was 17.7 µM (active). The IC50 (Caspase-3) was 17.4 µM (active) and the IC50 [4] was > 20 µM (inactive).

For `O=C(O)c1ccc(S(=O)(=O)c2ccc([N+](=O)[O-])cc2[N+](=O)[O-])cc1`, the IC50 [5] was > 100 µM (active).

For `N#C[C@@H]1[C@H](c2ccc(C#Cc3ccc(F)cc3)cc2)[C@@H](CO)N1C(=O)Nc1ccc(F)cc1`, the AC50 [6] was 5.19 µM (active), the AC50 [7] was 27.9 µM (active) and the AC50 [8] was 12.9 µM (active). For the same molecule, the AC50 (Paired box protein Pax-8) was 4.38 µM (active), the AC50 [9] was 14.3 µM (active) and the AC50 [10] was 22.2 µM (active). For the same molecule, the AC50 [11] was 34.4 µM (active), the AC50 [12] was 33.8 µM (active) and the AC50 [13] was 15.8 µM (active). The AC50 [14] was 23.1 µM (active), the AC50 [15] was > 70 µM (inactive) and the AC50 [16] was 44.7 µM (active). The AC50 [17] was 30.9 µM (active), the AC50 [18] was > 70 µM (inactive) and the AC50 [19] was 16.8 µM (active). The AC50 [20] was 35.9 µM (active) and the AC50 [21] was 24 µM (active).

With `C[C@@H]1CN([C@@H](C)CO)C(=O)c2cccc(NC(=O)Nc3ccc(C(F)(F)F)cc3)c2O[C@H]1CN(C)C(=O)Nc1cccc2ccccc12` the AC50 [22] was > 39 µM (inactive), the AC50 [23] was > 52 µM (inactive) and the AC50 [24] was > 70 µM (inactive). For the same molecule, the AC50 [25] was 7.88 µM (active).

Work on `Cn1c(NC(=O)c2ccccn2)nc2ccccc21` yielded an AbsAC90 [26] of 274.28 µM.

— ChEMBL document CHEMBL1201862, “PubChem BioAssay data set” (2004)
